Assay results: patent publication US20100029615A1, “BENZIMIDAZOLE DERIVATIVES” (priority 2006, published 2010)
Where a name gives a salt, the structure may show the parent alone.

Target: T1, SMO (Mus musculus, UniProt P56726)
T1 construct: endogenous in cells; host or cells: C3H10T1/2 (ATCC #CCL-226)
Assay: Smoothened (SMO)/Sonic Hedgehog (SHh) Transient Transcriptional Activation Assay (Gli-luciferase reporter in C3H10T1/2 cells)
Type: cell-based, murine
Details: C3H 10T1/2, 2 μM test compound, SHh 250 ng/ml, 20 hrs, read-out: SMO CELL % INHIBITION @ 2 μM
Description: As noted above, the compounds of the invention are useful as inhibitors of SMO. Methods for determining the in vitro activity of these compounds are described below: Smoothened (SMO)/Sonic Hedgehog (SHh) Transient Transcriptional Activation Assay
On Day 1,2×10^6 C3H10T1/2 cells (ATCC #CCL-226) were split and seeded in 12 mls of growth medium Basal Medium Eagle (BME, Invitrogen #21010-046) supplemented with 2 mM L-glutamine (Invitrogen #25030-081), 0.1 units/ml penicillin and 0.1 ug/ml streptomycin (Invitrogen #15140-122), and 10% Fetal Bovine Serum (FBS, Invitrogen #16140-071) in a T-75 flask (Costar #3376). They were allowed to attach for 4 hours at 37° C., 5% CO2. The cells were then transfected using Fugene 6 (Roch #11 814 443 001) in the following reaction: 48 ul Fugene 6 and 745 ul Opti-MEM (Invitrogen #31985-070) were mixed and allowed to sit at room temperature for 5 minutes. 8 ug of pGL4.14/mGli(CS) DNA (10× murine Gli response elements and minimal CS promoter) and 0.5 ug of pEGFP DNA (Clontech) were added, gently mixed and incubated at room temperature for 20 minutes. This entire transfection mix was then added to the T-75 flask containing the cells. The cells were incubated at 37 °C, 5% C02 for 18-24 hrs.
On Day 2, the transfected cells were trypsinized and seeded into white 96 well plates (Costar #3917) in 100ul/well of growth medium at a concentration of 20,000 cells/well. The cells were allowed to recover for 4 hrs before adding serum starvation medium Dulbecco's Modified Eagle Medium (DMEM, Invitrogen #21063-029) supplemented with 2 mM L-glutamine, 0.1 units/ml penicillin and 0.1 ug/ml streptomycin, and 0.5% Calf Serum (CS, Invitrogen #26170-043). The growth media was aspirated off, and the cells were rinsed with 100 ul of starvation media. 95 ul of starvation media was then added to each well. The cells were incubated for 20 hrs at 37 °C, 5% C02.
On Day 3, cells were dosed with test compounds at a final concentration ranging from 2 uM to 2 nM. Immediately after dosing cells with compounds, recombinant human sonic hedgehog (SHh, R&D Systems #1845-SH) was add to a final concentration of 250 ng/ml. A 25 ug vial of SHh was reconstituted with 250 ul PBS/0.1% BSA to give a 100 ng/ul working stock. This working stock was then diluted 1:20 in starvation media. The transfected cells were incubated with compounds and SHh for 20 hrs at 37 °C, 5% C02.
Luciferase assays were conducted on Day 4 using Dual-Glo Luciferase assay system (Promega #E2940) according to Promega's protocol. Briefly, Dual-Glo luciferase reagent was made up and 100 uls were added to each well of the 96 well plate containing media. Plates were shaken at room temperature for 10 minutes, and then read on TopCount (Perkin-Elmer). The luminescence was recorded.

T1 sequence (P56726 33-793): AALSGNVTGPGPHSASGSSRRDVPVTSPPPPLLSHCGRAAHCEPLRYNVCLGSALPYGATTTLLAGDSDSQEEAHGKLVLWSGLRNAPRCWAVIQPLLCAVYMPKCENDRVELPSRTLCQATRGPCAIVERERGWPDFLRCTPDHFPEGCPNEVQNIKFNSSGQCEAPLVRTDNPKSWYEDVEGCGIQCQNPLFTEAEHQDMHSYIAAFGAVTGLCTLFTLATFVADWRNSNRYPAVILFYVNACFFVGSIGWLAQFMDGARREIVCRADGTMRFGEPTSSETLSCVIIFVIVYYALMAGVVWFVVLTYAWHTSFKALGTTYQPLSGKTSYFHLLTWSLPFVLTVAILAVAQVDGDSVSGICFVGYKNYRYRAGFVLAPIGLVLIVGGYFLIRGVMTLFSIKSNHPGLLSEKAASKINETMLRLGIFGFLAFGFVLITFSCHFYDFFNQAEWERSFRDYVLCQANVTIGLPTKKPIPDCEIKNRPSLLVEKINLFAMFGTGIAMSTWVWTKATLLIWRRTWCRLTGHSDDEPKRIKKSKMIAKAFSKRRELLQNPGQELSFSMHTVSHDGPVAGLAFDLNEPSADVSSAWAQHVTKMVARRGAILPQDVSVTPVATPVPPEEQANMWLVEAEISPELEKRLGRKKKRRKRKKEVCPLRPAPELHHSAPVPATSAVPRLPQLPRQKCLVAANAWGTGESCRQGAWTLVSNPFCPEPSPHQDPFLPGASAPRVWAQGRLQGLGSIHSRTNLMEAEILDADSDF

inhibition at 2 µM | Compound
103% | Cc1cc2nc(C3CCCC(NC(=O)c4ccc5c(c4)OCCO5)C3)[nH]c2cc1C (stereo not drawn) [Example 80, N-[3-(5,6-dimethyl-1H-benzimidazol-2-yl)cyclohexyl]-2,3-dihydro-1,4-benzodioxine-6-carboxamide HCl]
103% | O=C(NC1CCCC(c2nc3ccc(F)c(F)c3[nH]2)C1)c1ccc2c(c1)OCCO2 (stereo not drawn) [Example 81, N-[3-(6,7-difluoro-1H-benzimidazol-2-yl)cyclohexyl]-2,3-dihydro-1,4-benzodioxine-6-carboxamide HCl]
101% | Cc1c(Br)cc2[nH]c(C3CCCC(NC(=O)c4ccc5c(c4)OCCO5)C3)nc2c1C (stereo not drawn) [Example 82, N-[3-(6-bromo-4,5-dimethyl-1H-benzimidazol-2-yl)cyclohexyl]-2,3-dihydro-1,4-benzodioxine-6-carboxamide HCl]
103% | O=C(NC1CCCC(c2nc3cc(F)c(F)cc3[nH]2)C1)c1ccc2c(c1)OCCO2 (stereo not drawn) [Example 83, N-[3-(5,6-difluoro-1H-benzimidazol-2-yl)cyclohexyl]-2,3-dihydro-1,4-benzodioxine-6-carboxamide HCl]
101% | O=C(NC1CCCC(c2nc3ccc(C(F)(F)F)cc3[nH]2)C1)c1ccc2c(c1)OCCO2 (stereo not drawn) [Example 84, N-{3-[6-(trifluoromethyl)-1H-benzimidazol-2-yl]cyclohexyl}-2,3-dihydro-1,4-benzodioxine-6-carboxamide-HCl]
103% | O=C(NC1CCCC(c2nc3ccc(Cl)cc3[nH]2)C1)c1ccc2c(c1)OCCO2 (stereo not drawn) [Example 85, N-[3-(6-chloro-1H-benzimidazol-2-yl)cyclohexyl]-2,3-dihydro-1,4-benzodioxine-6-carboxamide HCl]
102% | O=C(NC1CCCC(c2nc3ccc(Br)cc3[nH]2)C1)c1ccc2c(c1)OCCO2 (stereo not drawn) [Example 86, N-[3-(6-bromo-1H-benzimidazol-2-yl)cyclohexyl]-2,3-dihydro-1,4-benzodioxine-6-carboxamide HCl]
91% | O=C(NC12CCCC(c3nc4ccccc4[nH]3)(C1)C2)c1ccc2c(c1)OCCO2 [Example 87, N-[5-(1H-benzimidazol-2-yl)bicyclo[3.1.1]hept-1-yl]-2,3-dihydro-1,4-benzodioxine-6-carboxamide]
106% | COc1ccc2[nH]c([C@H]3CCC[C@@H](NC(=O)c4ccc5c(c4)OCCO5)C3)nc2c1 [Example 88, N-[(1R,3S)-3-(5-methoxy-1H-benzimidazol-2-yl)cyclohexyl]-2,3-dihydro-1,4-benzodioxine-6-carboxamide HCl]
96% | O=C(CCC(=O)c1ccccc1)NC1CCCC(c2nc3ccccc3[nH]2)C1 (stereo not drawn) [Example 89, N-[3-(1H-benzimidazol-2-yl)cyclohexyl]-4-oxo-4-phenylbutanamide triflouroacetate]
100% | O=C(NC1CCCC(c2nc3ccccc3[nH]2)C1)c1ccc(-n2ccnc2)cc1 (stereo not drawn) [Example 90, N-[3-(1H-benzimidazol-2-yl)cyclohexyl]-4-(1H-imidazol-1-yl)benzamide triflouroacetate]
99% | O=C(NC1CCCC(c2nc3ccccc3[nH]2)C1)c1cnn(Cc2ccccc2)c1 (stereo not drawn) [Example 91, N-[3-(1H-benzimidazol-2-yl)cyclohexyl]-1-benzyl-1H-pyrazole-4-carboxamide triflouroacetate]
90% | O=C(Cn1nc2ccccc2n1)NC1CCCC(c2nc3ccccc3[nH]2)C1 (stereo not drawn) [Example 92, N-[3-(1H-benzimidazol-2-yl)cyclohexyl]-2-(2H-1,2,3-benzotriazol-2-yl)acetamide triflouroacetate]
24% | Cc1ccoc1C(=O)NC1CCCC(c2nc3ccccc3[nH]2)C1 (stereo not drawn) [Example 93, N-[3-(1H-benzimidazol-2-yl)cyclohexyl]-3-methyl-2-furamide triflouroacetate]
96% | CN1c2ccccc2OCC1CC(=O)NC1CCCC(c2nc3ccccc3[nH]2)C1 (stereo not drawn) [Example 94, N-[3-(1H-benzimidazol-2-yl)cyclohexyl]-2-(4-methyl-3,4-dihydro-2H-1,4-benzoxazin-3-yl)acetamide triflouroacetate]
20% | O=C(Cn1ncc2ccccc21)NC1CCCC(c2nc3ccccc3[nH]2)C1 (stereo not drawn) [Example 95, N-[3-(1H-benzimidazol-2-yl)cyclohexyl]-2-(1H-indazol-1-yl)acetamide triflouroacetate]
93% | COCOc1ccc(C(=O)NC2CCCC(c3nc4ccccc4[nH]3)C2)cc1 (stereo not drawn) [Example 96, N-[3-(1H-benzimidazol-2-yl)cyclohexyl]-4-(methoxymeth-oxy)benzamide triflouroacetate]
83% | CC(C)C1=NOC(C(=O)NC2CCCC(c3nc4ccccc4[nH]3)C2)C1 (stereo not drawn) [Example 97, N-[3-(1H-benzimidazol-2-yl)cyclohexyl]-3-isopropyl-4,5-dihydroisoxazole-5-carboxamide triflouroacetate]
55% | CCOC(=O)CCCCC(=O)NC1CCCC(c2nc3ccccc3[nH]2)C1 (stereo not drawn) [Example 98, ethyl 6-{[3-(1H-benzimidazol-2-yl)cyclohexyl]amino}-6-oxohexanoate trifl;uoroacetate]
107% | CC(=O)c1c(C)[nH]c(C(=O)NC2CCCC(c3nc4ccccc4[nH]3)C2)c1C (stereo not drawn) [Example 99, 4-acetyl-N-[3-(1H-benzimidazol-2-yl)cyclohexyl]-3,5-dimethyl-1H-pyrrole-2-carboxamide triflouroacetate]
81% | COc1cc(OC)cc(C(=O)NC23CCCC(c4nc5ccccc5[nH]4)(C2)C3)c1 [Example 100, N-[5-(1H-benzimidazol-2-yl)bicyclo[3.1.1]hept-1-yl]-3,5-dimethoxybenz-amide]
56% | O=C(NC1CCCC(c2nc3ccccc3[nH]2)C1)c1n[nH]c2ccccc12 (stereo not drawn) [Example 101, N-[3-(1H-benzimidazol-2-yl)cyclohexyl]-1H-indazole-3-carboxamide triflouroacetate]
93% | N#CCC(=O)NC1CCCC(c2nc3ccccc3[nH]2)C1 (stereo not drawn) [Example 102, N-[3-(1H-benzimidazaol-2-yl)cyclohexyl]-2-cyanoacetamide triflouroacetate]
94% | COC(=O)CCCC(=O)NC1CCCC(c2nc3ccccc3[nH]2)C1 (stereo not drawn) [Example 103, methyl 5-{[3-(1H-benzimidazol-2-yl)cyclohexyl]-amino}-5-oxopentanoate triflouroacetate]
73% | O=C(COCc1ccccc1)NC1CCCC(c2nc3ccccc3[nH]2)C1 (stereo not drawn) [Example 104, N-[3-(1H-benzimidazol-2-yl)cyclohexyl]-2-(benzyloxy)-acetamide triflouroacetate]
103% | O=C(CN1C(=O)COc2cccnc21)NC1CCCC(c2nc3ccccc3[nH]2)C1 (stereo not drawn) [Example 105, N-[3-(1H-benzimidazol-2-yl)cyclohexyl]-2-(3-oxo-2,3-dihydro-4H-pyrido[3,2-b][1,4]oxazin-4-yl)acetamide triflouroacetate]
76% | O=C(NC1CCCC(c2nc3ccccc3[nH]2)C1)c1ccnn1-c1ccccc1 (stereo not drawn) [Example 106, N-[3-(1H-benzimidazol-2-yl)cyclohexyl]-1-phenyl-1H-pyrazole-5-carboxamide triflouroacetate]
79% | O=C(Cc1cn2cc(Cl)ccc2n1)NC1CCCC(c2nc3ccccc3[nH]2)C1 (stereo not drawn) [Example 107, N-[3-(1H-benzimidazol-2-yl)cyclohexyl]-2-(6-chloroimidazo[1,2-a]pyridin-2-yl)acetamide triflouroacetate]
116% | O=C(NC1CCCC(c2nc3ccccc3[nH]2)C1)c1c[nH]c(=O)[nH]c1=O (stereo not drawn) [Example 108, N-[3-(1H-benzimidazol-2-yl)cyclohexyl]-2,4-dioxo-1,2,3,4-tetrahydropyr-imidine-5-carboxamide triflouroacetate]
97% | COc1ncccc1C(=O)NC1CCCC(c2nc3ccccc3[nH]2)C1 (stereo not drawn) [Example 109, N-[3-(1H-benzimidazol-2-yl)cyclohexyl]-2-methoxynico-tinamide triflouroacetate]
